Assay: Solubility test (amount of organic solvent needed to completely dissolve 1 g of compound)
Assay type: physicochemical
Details: 1 g compound, room temperature, solvent added drop by drop with stirring
Method: 1 g of a compound to be tested was poured into a test tube with stirring at room temperature and solvents listed in Table 1 were slowly added drop by drop. The amounts of the solvents required to completely dissolve 1 g of the tested compound were measured.

Structure (SMILES) | Amount of solvent required to completely dissolve 1 g of the tested compound: Acetone [g] | Amount of solvent required to completely dissolve 1 g of the tested compound: Chloroform [g] | Amount of solvent required to completely dissolve 1 g of the tested compound: Methylene chloride [g] | Amount of solvent required to completely dissolve 1 g of the tested compound: Tetrahydrofuran [g]
CCc1ccc(C)nc1N1C(=O)c2ccc3c4c(ccc(c24)C1=O)C(=O)N(c1nc(C)ccc1CC)C3=O [Compound (40)] | 282 | 8.6 | 10.2 | 9.7
CCc1ccc(C)nc1N1C(=O)c2ccc3c4c(ccc(c24)C1=O)C(=O)N(c1ccccc1)C3=O [Compound (1)] | 130 | 5.3 | 6.5 | 5.8

Source: patent publication US20060183043A1, “Electrophotographic photoreceptor containing pyridine-substituted asymmetric naphthalenetetracarboxylic acid diimide derivatives and electrophotographic imaging apparatus” (Samsung Electronics Co., Ltd., priority 2005, published 2006)
